# Reference: BindingDB's records for doi:10.1016/j.bmcl.2010.06.050 (Universit&#224, 2010)
# Key:
# [1] = molecular target: T1, Fatty-acid amide hydrolase 1 (Mus musculus, UniProt O08914); test: Inhibition of mouse brain FAAH assessed as conversion of [3H-ethanolamine]AEA to [3H]ethanolamine by scintillation counting
# T1 sequence (O08914 whole entry): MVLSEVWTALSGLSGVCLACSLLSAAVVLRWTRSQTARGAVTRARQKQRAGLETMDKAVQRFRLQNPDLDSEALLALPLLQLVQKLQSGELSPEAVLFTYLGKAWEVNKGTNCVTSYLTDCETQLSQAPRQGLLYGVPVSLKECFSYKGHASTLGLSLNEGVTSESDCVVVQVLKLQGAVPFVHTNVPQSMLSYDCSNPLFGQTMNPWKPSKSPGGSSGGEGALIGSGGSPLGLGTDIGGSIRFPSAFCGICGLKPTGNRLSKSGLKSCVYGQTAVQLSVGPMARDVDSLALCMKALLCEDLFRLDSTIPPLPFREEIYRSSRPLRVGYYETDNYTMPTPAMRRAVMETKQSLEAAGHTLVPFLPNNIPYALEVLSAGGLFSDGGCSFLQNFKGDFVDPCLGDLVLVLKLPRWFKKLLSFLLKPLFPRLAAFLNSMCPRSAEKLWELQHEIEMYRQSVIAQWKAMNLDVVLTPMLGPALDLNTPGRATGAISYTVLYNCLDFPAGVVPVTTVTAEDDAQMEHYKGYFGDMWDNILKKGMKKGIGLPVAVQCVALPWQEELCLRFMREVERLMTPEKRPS
# [2] = molecular target: Monoglyceride lipase MGLL (Mus musculus) (UniProt O35678); test: Inhibition of mouse brain MAGL
# Sequence of Monoglyceride lipase MGLL (Mus musculus) (O35678 whole entry, looked up): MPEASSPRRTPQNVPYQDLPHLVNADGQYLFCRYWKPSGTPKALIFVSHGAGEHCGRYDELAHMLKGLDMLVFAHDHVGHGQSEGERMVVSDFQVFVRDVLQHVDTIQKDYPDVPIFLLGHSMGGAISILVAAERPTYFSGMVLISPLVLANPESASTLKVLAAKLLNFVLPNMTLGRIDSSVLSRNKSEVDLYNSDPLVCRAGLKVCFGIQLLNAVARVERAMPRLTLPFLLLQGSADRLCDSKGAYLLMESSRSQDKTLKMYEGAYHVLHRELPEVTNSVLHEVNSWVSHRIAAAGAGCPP
structure (smiles),measurement,setting,value
"O=C(Nc1ccccc1)ON=C1CCC(c2ccccc2)CC1 (configuration not stated) [4-Phenyl-cyclohexanone, O-(phenylaminocarbonyl)oxime]",IC50,[1],> 50 µM
"CC(=NOC(=O)Nc1ccccc1)c1cccc(-c2cccs2)c1 [1-(3-Thiophen-2-yl-phenyl)-ethanone, O-(phenylaminocarbonyl)oxime]",IC50,[2],> 10 µM
